Data reported in patent publication US8273768B2, “Iso CA-4 and analogues thereof as potent cytotoxic agents inhibiting tubuline polymerization” (Centre National de la Recherche Scientifique (CNRS), priority 2007, dated 2012).

Assays:
HCT116 = assay: Study of cytotoxicity (CellTiter-Blue, 72 hours); assay type: cell-based; details: Homo sapiens, HCT-116; 72 hours of incubation; read-out: IC50 for different cell lines: HCT116
Protocol: (§1) The biological activity of the compounds of the invention was studied in vitro on 7 human cancer cell lines with different tissue origins (HCT116: colorectal carcinoma; K562: chronic myeloid leukemia; B16-F10: melanoma; U87: glioblastoma; A549: lung cancer and MDA-MB 231 and MDA-MB 435: breast cancer). The cells selected for the study were incubated at 37° C. in the presence of one of the compounds added into the culture medium at different concentrations. The whole of the conducted experiments allowed determination of the toxicity level of the tested compound, its effect on the course of the cell cycle as well as its capacity of inducing cell death by apoptosis.
(§2) The cancer cell lines originate from the American Type Culture Collection (Rockville, Md., USA) and were grown according to the recommendations of the supplier.
(§3) The cells A549, U87, MDA-MB231, MDA-MB435 and B16F10 were grown in a culture medium “Dulbecco minimal essential medium” (DMEM) containing 4.5 g/L of glucose and supplemented with 10% fetal calf serum and 1% glutamine. The K562 and HCT116 were grown in an RPMI 1640 medium containing 10% fetal calf serum and 1% glutamine. All the cell lines were maintained in the culture at 37° C. in a humid atmosphere containing 5% of CO2. Cell viability was evaluated by using the reagent “CellTiter-Blue™” (Promega, Wis., USA) while observing the instructions of the manufacturer. The cells were sown in 96-well culture plates with 5000 cells per well in 50 μL of culture medium. After 24 hours of culture, the compounds of general formula (I) dissolved in DMSO were individually added into each of the wells in an amount of 50 μl per well. All the compounds were tested in triplicate for each defined concentration and each experiment was repeated three times. After 72 hours of incubation, 20 μL of resazurin were added in each well. After 2 hours of incubation, the emitted fluorescence was measured at 590 nm after excitation at 560 nm by means of a fluorescence reader of the Victor type (Perkin-Elmer, USA).
(§4) The concentration of each of the compounds which induces the death of 50% of the cells (IC50) was determined after 72 hours of incubation. Certain compounds according to the invention have an IC50 of the order of one nanomolar concentration, therefore equivalent to CA-4 taken as a reference.

MDA-MB 231 = assay: Study of cytotoxicity (CellTiter-Blue, 72 hours); assay type: cell-based; details: Homo sapiens, MDA-MB-231; 72 hours of incubation; read-out: IC50 for different cell lines: M231
Protocol: as §1, §2, §3, §4

U87 = assay: Study of cytotoxicity (CellTiter-Blue, 72 hours); assay type: cell-based; details: Homo sapiens, U-87 MG; 72 hours of incubation; read-out: IC50 for different cell lines: U87
Protocol: as §1, §2, §3, §4

A549 = assay: Study of cytotoxicity (CellTiter-Blue, 72 hours); assay type: cell-based; details: Homo sapiens, A549; 72 hours of incubation; read-out: IC50 for different cell lines: A549
Protocol: as §1, §2, §3, §4

K562 = assay: Study of cytotoxicity (CellTiter-Blue, 72 hours); assay type: cell-based; details: Homo sapiens, 72 hours of incubation, read-out: IC50 for different cell lines: K562
Protocol: as §1, §2, §3, §4

MDA-MB 435 = assay: Study of cytotoxicity (CellTiter-Blue, 72 hours); assay type: cell-based; details: Homo sapiens, MDA-MB-435; 72 hours of incubation; read-out: IC50 for different cell lines: M435
Protocol: as §1, §2, §3, §4

K562 cells = assay: Study of the cell cycle (flow cytometry); assay type: cell-based, human; details: K562, 24 hours, 5 nM
Protocol: (§5) The K562 and MDA-MB231 cells are sown in 6-well culture plates with 300,000 cells per well in their respective media as described above. After 24 hours of culture, the compound (I-1) was added in each of the wells at different concentrations. After 24 hours of incubation, the cells are collected individually in 15 mL tubes and then centrifuged. The cells are then washed twice in cold PBS and then re-suspended in 1 mL of PBS, fixed by adding 2 mL of cold absolute ethanol and placed at 4° C. for 1 hour. After centrifugation, the cells are washed twice in PBS and then the cell pellet is taken up in 100 μL of Triton X100 at 1%. After 30 minutes of incubation at room temperature, 50 μL of RNase A boiled beforehand (1 mg/mL) and 500 μL of propidium iodide (50 μg/mL) are added into each tube and incubated in the dark at room temperature for 30 minutes. The distribution of the number of cells in each of the phases of the cell cycle is then determined by flow cytometry with a cytometer of the FC500 type (Beckman-Coulter, France).
(§6) This effect is significant after 24 hours of exposure of the cells to the compound (I-1) used at a concentration of 5 nM (FIG. 1).

MDA-MB231 cells = assay: Study of the cell cycle (flow cytometry); assay type: cell-based, human; details: MDA-MB231, 24 hours, 5 nM
Protocol: as §5, §6

B16F10 = assay: Study of cytotoxicity (CellTiter-Blue, 72 hours); assay type: cell-based, human; details: Mus musculus, B16-F10; 72 hours of incubation; read-out: IC50 for different cell lines: B16F10
Protocol: as §1, §2
The cells A549, U87, MDA-MB231, MDA-MB435 and B16F10 were grown in a culture medium “Dulbecco minimal essential medium” (DMEM) containing 4.5 g/L of glucose and supplemented with 10% fetal calf serum and 1% glutamine. […] Cell viability was evaluated by using the reagent “CellTiter-Blue™” (Promega, Wis., USA) while observing the instructions of the manufacturer. […] After 2 hours of incubation, the emitted fluorescence was measured at 590 nm after excitation at 560 nm by means of a fluorescence reader of the Victor type (Perkin-Elmer, USA). […]

[1] = system: human colon tumors LS174T xenografted in Nude mice; assay: Antivascular activity in vivo (MRI, Dotarem entry into tumors); details: LS174T xenograft
Protocol: The antivascular effect of the molecule (I-1) was tested on mice bearing human tumors by comparison with the positive control DMXAA, according to the procedure described by Beauregard et al. (NMR Biomed., 2002, 15:99-105).
Thus, CD-1 Nude female mice were xenografted by subcutaneous injection of human colon tumoral cells (LS174T). The mice bearing tumors were then treated with 0.9% NaCl (carrier, 10 mL/kg), DMXAA (27.5 mg/kg) via an intraperitoneal route (IP) or the molecule (I-1) (45 mg/kg) via an intravenous route (IV). Three hours after administration, the mice were treated with the Dotarem® contrast agent intravenously (IV). The penetration of the contrast agent into the tumors was followed in real time by magnetic resonance imaging (MRI) and is expressed by an enhancement of the intensity of the signal in the tumors. Densitometric analysis of the acquired images allows determination of the maximum enhancement (Rmax) as well as the slope P0 corresponding to the entry rate of Dotarem® into the tumors.

[2] = 3 hours after administration, DMXAA 27.5 mg/kg IP, (I-1) 45 mg/kg IV

How did the IC50 (HCT116) turn out when `C=C(c1ccc(OC)c(O)c1)c1cc(OC)c(OC)c(OC)c1` [(I-1)] was run?
The IC50 was 2 to 4 nM.

And the IC50 (MDA-MB 231)?
The IC50 was 4 nM.

And the IC50 (U87)?
The IC50 was 8 nM.

And the IC50 (A549)?
The IC50 was 8 nM.

What about the IC50 (K562) of the same molecule?
The IC50 was 5 nM.

What about the IC50 (MDA-MB 435) of the same molecule?
Its IC50 is 4.5 nM.

And the “Effect on cell cycle” value (K562 cells)?
The value was “blocks cell division in the G2/M phase”.

What about the “Effect on cell cycle” value (MDA-MB231 cells) of the same molecule?
Its value is “blocks cell division in the G2/M phase”.

What about the IC50 (B16F10) of the same molecule?
The IC50 was 2 nM.

And the “Antivascular effect in vivo” value ([1]; 45 mg/kg IV)?
The value was “has an antivascular effect”.

What about the “Average of P0” value [1, 2] of the same molecule?
Its value is 1.53±0.82 arbitrary unit.

What about the “Average of Rmax” value [1, 2] of the same molecule?
The value was 67.56±33.10 % of the NaCl control.
